In publication PMC4128571 (Drug testing and analysis, 2014):

Key:
Type in all cases: biochemical
[1] = molecular target: dopamine transporters (DAT) (Rattus norvegicus, UniProt P23977); details: for DAT/SERT ratio: (EC50 at DAT)^-1/(EC50 at SERT)^-1, higher value indicates greater DAT selectivity; for Efficacy to evoke release at DAT (of maximal release): rat brain synaptosomes
[2] = molecular target: norepinephrine transporters (NET) (Rattus norvegicus, UniProt Q63380); details: rat brain synaptosomes
Sequence of norepinephrine transporters (NET) (Q63380 1-617): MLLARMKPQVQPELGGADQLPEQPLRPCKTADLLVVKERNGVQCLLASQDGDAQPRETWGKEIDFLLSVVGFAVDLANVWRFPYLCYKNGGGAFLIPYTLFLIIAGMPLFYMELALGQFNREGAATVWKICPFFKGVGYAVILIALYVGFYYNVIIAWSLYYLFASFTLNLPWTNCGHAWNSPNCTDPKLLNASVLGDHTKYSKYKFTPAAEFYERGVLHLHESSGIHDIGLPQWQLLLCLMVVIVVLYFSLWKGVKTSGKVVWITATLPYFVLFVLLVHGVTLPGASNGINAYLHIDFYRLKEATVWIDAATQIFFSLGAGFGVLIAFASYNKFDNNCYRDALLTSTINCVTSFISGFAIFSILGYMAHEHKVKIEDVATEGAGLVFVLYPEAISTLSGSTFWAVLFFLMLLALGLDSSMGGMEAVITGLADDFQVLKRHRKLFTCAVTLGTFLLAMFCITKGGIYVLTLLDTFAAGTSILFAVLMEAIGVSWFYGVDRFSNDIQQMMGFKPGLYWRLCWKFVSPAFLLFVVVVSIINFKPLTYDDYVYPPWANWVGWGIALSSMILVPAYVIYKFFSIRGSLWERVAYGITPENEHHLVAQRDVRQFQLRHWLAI

5-HT transporters (SERT) = 5-HT transporters (SERT) (Rattus norvegicus, UniProt P31652); details: for Efficacy to evoke release at SERT (of maximal release): rat brain synaptosomes
Sequence of 5-HT transporters (SERT) (P31652 whole entry): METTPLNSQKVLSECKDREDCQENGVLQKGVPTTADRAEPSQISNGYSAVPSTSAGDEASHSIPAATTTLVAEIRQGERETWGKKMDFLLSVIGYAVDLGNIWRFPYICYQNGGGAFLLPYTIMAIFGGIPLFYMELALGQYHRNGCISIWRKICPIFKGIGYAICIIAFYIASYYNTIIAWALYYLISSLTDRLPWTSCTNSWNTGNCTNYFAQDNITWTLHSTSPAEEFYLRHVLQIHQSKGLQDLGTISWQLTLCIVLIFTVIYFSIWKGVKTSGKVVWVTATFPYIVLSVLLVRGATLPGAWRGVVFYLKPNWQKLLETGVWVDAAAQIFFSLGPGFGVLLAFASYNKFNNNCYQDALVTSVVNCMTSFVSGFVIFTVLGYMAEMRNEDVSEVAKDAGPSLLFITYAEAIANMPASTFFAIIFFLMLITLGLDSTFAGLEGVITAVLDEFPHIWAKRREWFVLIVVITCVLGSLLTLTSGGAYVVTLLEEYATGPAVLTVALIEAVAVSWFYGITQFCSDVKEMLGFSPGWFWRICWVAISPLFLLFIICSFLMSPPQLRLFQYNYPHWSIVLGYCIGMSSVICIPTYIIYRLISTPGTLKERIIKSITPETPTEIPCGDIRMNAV

Sequence of dopamine transporters (DAT) (P23977 whole entry): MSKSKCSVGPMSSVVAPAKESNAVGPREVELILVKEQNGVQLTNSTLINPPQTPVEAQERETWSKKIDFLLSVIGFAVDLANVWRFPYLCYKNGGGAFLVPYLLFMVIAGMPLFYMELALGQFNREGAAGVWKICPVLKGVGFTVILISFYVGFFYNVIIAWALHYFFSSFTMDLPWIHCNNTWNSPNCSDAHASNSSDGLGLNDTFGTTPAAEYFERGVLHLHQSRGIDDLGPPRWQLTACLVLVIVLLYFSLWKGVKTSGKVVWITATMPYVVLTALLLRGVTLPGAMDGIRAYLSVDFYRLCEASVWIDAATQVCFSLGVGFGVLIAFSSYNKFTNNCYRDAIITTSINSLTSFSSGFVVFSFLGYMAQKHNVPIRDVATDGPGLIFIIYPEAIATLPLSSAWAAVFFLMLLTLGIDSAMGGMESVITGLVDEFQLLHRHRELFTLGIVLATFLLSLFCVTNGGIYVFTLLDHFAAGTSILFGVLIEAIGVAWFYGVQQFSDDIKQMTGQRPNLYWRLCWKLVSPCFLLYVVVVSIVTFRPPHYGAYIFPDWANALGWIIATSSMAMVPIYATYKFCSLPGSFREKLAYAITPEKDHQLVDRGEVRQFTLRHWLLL

Compound | DAT/SERT ratio [1] | Efficacy to evoke release at DAT (of maximal release) [1] | Efficacy to evoke release at NET (of maximal release) [2] | Efficacy to evoke release at SERT (of maximal release) (5-HT transporters (SERT)) | EC50 [1] | EC50 (5-HT transporters (SERT))
Cc1ccc([C@H]2OC(N)=N[C@H]2C)cc1 (racemic) [(±)-cis-4,4'-DMAR, (±)-cis-4-Methyl-5-(4-methylphenyl)-4,5-dihydrooxazol-2-amine] | 2 | fully efficacious | fully efficacious | fully efficacious | – | –
C[C@@H]1N=C(N)O[C@@H]1c1ccccc1 (racemic) [(±)-cis-4-MAR, (±)-cis-4-methylaminorex] | 31 | fully efficacious | fully efficacious | fully efficacious | – | –
NC1=NCC(c2ccccc2)O1 (stereo not drawn) [Aminorex, 5-phenyl-4,5-dihydrooxazol-2-amine] | 45 | fully efficacious | fully efficacious | fully efficacious | 9.1 ± 0.9 nM | 414 ± 78 nM
C[C@H](N)Cc1ccccc1 [d-Amphetamine] | – | – | fully efficacious | – | – | –
